Literature values in US20090298852A1, “Pellet-form slow-release preparation for vertigo” (priority 2005, published 2009).

Q: With C(=C\c1ccccc1)/CN1CCN(C(c2ccccc2)c2ccccc2)CC1 [cinnarizine, 1-benzhydryl-4-trans-cinnamylpiperazine] as the compound, how does the solubility in water read?
A: approximately 2 mg/100 ml
